Activity calls are given as the source filed them. Cut-off read from the data, not from the text of the source, for most assays here: actives have a measured Kd and inactives only a lower limit.
How the values were obtained:
[1] = molecular target: Epithelial discoidin domain-containing receptor 1 (Homo sapiens, UniProt Q08345)
[2] = molecular target: Cyclin-dependent kinase 12 (Homo sapiens, UniProt Q9NYV4)
[3] = molecular target: Mitogen-activated protein kinase 9 (Homo sapiens, UniProt P45984)
[4] = molecular target: DNA topoisomerase 2-beta (Homo sapiens, UniProt Q02880)
[5] = molecular target: Rho-associated protein kinase 2 (Homo sapiens, UniProt O75116)
[6] = molecular target: Cyclin-dependent kinase 4 (Homo sapiens, UniProt P11802)
[7] = molecular target: Mitogen-activated protein kinase kinase kinase 20 (Homo sapiens, UniProt Q9NYL2)
[8] = molecular target: Mitogen-activated protein kinase kinase kinase 4 (Homo sapiens, UniProt Q9Y6R4)
[9] = molecular target: Serine/threonine-protein kinase PAK 2 (Homo sapiens, UniProt Q13177)
[10] = molecular target: T1, Dual specificity mitogen-activated protein kinase kinase 3 (Homo sapiens, UniProt P46734)
T1 sequence (P46734 whole entry): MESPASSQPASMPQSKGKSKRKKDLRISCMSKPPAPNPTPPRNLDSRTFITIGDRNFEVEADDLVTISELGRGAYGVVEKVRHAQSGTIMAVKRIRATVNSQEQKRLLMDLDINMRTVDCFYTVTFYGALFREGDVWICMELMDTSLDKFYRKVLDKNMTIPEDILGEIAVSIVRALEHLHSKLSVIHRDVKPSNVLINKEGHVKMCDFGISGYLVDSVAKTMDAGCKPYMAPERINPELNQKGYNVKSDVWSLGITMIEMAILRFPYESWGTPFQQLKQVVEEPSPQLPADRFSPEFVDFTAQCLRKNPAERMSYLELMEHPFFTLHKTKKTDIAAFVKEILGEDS

[11] = molecular target: T2, Glycogen phosphorylase, brain form (Homo sapiens, UniProt P11216)
T2 sequence (P11216 whole entry): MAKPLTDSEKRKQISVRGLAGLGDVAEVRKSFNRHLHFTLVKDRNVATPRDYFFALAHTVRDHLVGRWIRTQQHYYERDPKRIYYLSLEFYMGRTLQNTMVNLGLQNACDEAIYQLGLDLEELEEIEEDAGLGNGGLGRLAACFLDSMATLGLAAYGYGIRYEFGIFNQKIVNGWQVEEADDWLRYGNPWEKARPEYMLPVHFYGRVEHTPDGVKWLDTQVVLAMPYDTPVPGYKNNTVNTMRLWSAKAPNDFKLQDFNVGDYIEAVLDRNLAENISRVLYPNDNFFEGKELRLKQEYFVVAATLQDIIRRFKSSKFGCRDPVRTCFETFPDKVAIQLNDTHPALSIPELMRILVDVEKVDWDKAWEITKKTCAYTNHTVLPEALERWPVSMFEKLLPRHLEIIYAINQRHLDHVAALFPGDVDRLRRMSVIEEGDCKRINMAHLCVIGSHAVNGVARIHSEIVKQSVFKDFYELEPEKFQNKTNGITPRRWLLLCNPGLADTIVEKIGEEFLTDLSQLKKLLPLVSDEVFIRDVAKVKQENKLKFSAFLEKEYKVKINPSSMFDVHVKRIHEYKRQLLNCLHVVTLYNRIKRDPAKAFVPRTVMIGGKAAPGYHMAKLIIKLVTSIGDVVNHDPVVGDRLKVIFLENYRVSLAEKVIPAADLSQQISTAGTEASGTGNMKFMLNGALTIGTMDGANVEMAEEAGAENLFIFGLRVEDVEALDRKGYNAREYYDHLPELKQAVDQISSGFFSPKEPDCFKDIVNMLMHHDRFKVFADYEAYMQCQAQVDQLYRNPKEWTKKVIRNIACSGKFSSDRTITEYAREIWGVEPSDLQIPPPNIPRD

[12] = molecular target: T3, Thyroid hormone receptor-associated protein 3 (Homo sapiens, UniProt Q9Y2W1)
T3 sequence (Q9Y2W1 whole entry): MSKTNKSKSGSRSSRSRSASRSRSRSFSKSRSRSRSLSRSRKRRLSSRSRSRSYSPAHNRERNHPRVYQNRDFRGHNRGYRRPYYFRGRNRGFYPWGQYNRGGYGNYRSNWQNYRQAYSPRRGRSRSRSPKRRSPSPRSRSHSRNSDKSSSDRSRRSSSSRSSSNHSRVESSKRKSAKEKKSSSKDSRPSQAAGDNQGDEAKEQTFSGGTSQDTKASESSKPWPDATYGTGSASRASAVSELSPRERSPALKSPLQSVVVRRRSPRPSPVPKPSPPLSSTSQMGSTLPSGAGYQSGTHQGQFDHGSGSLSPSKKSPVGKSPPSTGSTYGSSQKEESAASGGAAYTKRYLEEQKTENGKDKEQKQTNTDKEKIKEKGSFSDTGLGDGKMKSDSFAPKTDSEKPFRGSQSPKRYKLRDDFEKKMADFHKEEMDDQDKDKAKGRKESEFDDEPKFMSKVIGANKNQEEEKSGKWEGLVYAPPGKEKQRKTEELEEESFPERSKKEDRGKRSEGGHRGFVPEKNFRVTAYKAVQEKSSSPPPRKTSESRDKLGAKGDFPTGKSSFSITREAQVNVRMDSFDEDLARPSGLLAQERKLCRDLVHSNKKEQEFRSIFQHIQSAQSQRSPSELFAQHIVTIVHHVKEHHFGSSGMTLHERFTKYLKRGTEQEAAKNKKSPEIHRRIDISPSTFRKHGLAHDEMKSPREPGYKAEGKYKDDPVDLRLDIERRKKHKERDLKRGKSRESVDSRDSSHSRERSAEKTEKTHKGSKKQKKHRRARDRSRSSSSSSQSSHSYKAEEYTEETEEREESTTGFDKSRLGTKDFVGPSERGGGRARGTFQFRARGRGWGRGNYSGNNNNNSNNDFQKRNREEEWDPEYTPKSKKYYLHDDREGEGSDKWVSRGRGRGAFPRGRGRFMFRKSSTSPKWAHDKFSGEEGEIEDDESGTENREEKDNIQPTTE

[13] = molecular target: Calcium/calmodulin-dependent protein kinase type II subunit delta (Homo sapiens, UniProt Q13557)
[14] = molecular target: Ephrin type-A receptor 4 (Homo sapiens, UniProt P54764)
[15] = molecular target: cAMP-dependent protein kinase catalytic subunit alpha (Homo sapiens, UniProt P17612)
Note: in the data inactive means no Kd found up to 30 µM.

Cyclin-dependent kinase 4, sequence (P11802 whole entry): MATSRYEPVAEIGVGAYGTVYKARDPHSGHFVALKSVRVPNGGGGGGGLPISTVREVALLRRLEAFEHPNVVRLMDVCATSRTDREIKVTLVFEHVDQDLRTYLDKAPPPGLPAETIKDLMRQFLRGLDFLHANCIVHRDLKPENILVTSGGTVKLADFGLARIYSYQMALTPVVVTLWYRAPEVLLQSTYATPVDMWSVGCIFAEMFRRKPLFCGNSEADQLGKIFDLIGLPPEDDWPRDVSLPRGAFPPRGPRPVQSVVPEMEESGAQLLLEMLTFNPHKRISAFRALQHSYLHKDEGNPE
Mitogen-activated protein kinase kinase kinase 20, sequence (Q9NYL2 whole entry): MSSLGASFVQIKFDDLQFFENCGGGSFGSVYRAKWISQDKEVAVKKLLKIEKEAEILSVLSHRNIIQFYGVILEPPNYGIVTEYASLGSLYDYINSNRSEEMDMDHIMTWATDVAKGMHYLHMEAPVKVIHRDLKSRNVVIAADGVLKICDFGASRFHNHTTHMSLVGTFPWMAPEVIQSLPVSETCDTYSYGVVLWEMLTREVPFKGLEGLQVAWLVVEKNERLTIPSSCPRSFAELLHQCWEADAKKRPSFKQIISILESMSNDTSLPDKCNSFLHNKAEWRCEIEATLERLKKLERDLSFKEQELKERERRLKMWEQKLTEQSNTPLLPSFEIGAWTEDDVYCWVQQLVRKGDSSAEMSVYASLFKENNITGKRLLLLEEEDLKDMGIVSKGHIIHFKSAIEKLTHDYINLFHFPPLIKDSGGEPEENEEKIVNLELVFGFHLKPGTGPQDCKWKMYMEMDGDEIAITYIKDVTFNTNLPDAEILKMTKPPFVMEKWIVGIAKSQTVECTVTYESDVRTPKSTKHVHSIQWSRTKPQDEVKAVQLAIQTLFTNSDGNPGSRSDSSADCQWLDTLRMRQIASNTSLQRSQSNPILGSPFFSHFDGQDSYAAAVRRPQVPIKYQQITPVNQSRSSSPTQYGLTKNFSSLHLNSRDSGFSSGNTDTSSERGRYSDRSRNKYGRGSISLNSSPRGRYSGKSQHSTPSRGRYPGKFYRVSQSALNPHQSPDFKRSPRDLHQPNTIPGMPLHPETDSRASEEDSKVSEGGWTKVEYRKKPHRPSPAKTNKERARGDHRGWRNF
Mitogen-activated protein kinase kinase kinase 4, sequence (Q9Y6R4 whole entry): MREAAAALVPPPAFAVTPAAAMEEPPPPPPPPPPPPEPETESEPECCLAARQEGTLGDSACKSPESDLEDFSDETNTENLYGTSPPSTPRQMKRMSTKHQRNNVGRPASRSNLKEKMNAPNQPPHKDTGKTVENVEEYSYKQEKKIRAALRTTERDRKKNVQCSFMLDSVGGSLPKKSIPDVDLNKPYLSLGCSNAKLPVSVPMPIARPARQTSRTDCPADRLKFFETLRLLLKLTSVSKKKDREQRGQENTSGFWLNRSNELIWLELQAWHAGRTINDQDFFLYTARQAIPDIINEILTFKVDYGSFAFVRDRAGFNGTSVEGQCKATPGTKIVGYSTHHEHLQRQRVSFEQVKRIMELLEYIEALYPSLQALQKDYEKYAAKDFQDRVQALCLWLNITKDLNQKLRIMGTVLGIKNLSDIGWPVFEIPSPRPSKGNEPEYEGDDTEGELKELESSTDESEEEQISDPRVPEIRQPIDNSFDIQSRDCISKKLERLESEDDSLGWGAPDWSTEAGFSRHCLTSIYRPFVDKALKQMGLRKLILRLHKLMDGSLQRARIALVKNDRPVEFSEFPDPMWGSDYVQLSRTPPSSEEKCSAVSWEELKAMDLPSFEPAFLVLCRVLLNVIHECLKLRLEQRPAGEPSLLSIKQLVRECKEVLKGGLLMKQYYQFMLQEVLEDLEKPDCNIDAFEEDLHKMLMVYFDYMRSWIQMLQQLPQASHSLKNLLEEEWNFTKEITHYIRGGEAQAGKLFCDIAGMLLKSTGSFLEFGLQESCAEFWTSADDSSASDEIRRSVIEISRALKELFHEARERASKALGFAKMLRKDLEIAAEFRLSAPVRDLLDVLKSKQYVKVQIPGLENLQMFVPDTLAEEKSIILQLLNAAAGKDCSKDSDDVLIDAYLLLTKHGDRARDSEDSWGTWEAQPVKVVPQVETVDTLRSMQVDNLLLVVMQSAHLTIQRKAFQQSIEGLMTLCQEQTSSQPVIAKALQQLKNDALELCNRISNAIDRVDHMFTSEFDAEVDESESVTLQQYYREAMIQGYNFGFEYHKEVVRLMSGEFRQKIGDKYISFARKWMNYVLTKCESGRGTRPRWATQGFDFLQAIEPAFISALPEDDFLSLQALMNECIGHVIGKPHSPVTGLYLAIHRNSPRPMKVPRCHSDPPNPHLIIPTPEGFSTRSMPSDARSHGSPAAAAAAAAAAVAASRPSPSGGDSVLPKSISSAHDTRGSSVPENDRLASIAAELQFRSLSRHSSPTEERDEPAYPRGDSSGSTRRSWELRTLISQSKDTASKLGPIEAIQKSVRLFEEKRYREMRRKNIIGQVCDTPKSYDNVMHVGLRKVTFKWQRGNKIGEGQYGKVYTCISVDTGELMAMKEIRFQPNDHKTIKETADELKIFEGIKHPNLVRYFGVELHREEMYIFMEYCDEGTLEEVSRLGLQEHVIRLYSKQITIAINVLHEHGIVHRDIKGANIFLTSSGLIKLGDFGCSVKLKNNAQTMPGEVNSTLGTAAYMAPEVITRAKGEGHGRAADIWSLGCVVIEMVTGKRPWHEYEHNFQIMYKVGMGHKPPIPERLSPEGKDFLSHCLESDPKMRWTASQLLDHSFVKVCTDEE
Epithelial discoidin domain-containing receptor 1, sequence (Q08345 whole entry, the tested form may be a part): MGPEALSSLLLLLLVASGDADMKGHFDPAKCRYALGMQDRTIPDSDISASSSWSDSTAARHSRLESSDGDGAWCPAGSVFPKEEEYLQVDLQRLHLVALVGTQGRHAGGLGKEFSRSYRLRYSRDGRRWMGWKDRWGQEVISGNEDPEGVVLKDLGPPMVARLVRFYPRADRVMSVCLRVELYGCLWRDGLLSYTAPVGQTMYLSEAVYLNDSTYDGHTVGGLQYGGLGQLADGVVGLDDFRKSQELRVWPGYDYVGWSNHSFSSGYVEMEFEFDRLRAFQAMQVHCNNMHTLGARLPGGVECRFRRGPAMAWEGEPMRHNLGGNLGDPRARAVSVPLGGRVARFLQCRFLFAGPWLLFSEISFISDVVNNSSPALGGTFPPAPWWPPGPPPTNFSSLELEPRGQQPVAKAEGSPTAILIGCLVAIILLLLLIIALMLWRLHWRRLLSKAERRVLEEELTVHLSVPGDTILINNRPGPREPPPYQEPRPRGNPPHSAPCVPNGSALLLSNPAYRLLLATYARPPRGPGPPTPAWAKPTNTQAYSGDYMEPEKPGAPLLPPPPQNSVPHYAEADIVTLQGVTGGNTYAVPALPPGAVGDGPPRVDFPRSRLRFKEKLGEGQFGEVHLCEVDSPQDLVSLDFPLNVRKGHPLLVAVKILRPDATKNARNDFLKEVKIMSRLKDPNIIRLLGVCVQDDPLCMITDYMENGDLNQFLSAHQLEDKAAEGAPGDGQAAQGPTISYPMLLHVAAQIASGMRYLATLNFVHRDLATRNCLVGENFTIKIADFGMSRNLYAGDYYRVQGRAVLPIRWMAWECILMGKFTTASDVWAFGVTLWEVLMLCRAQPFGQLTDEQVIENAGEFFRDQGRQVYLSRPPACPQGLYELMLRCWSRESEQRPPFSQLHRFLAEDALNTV
Calcium/calmodulin-dependent protein kinase type II subunit delta, sequence (Q13557 whole entry): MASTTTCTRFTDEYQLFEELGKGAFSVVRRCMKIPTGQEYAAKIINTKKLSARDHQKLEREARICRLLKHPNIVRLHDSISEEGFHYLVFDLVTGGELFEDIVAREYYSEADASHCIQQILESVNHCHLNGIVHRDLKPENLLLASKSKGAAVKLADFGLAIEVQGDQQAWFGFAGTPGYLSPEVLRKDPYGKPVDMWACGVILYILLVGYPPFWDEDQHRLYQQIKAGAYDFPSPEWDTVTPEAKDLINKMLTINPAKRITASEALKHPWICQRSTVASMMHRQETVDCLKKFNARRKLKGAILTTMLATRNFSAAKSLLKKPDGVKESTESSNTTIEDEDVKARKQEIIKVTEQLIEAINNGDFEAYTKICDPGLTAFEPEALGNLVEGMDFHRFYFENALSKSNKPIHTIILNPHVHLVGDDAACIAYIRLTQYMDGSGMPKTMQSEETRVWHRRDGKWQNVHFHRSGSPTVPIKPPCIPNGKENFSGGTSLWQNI
Serine/threonine-protein kinase PAK 2, sequence (Q13177 whole entry): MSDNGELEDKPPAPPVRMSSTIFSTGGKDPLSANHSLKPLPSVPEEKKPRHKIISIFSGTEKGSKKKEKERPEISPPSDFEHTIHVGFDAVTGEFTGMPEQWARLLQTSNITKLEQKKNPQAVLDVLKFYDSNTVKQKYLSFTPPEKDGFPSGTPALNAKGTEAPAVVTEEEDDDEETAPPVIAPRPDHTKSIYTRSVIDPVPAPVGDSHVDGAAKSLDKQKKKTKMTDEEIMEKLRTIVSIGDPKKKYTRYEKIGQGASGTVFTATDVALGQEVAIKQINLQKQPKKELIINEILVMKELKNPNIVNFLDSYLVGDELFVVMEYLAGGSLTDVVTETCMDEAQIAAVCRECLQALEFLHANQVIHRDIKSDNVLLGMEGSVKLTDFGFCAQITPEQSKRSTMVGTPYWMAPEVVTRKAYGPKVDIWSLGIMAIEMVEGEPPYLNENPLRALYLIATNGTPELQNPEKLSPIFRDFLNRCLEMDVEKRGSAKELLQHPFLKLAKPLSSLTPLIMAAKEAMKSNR
Mitogen-activated protein kinase 9, sequence (P45984 whole entry): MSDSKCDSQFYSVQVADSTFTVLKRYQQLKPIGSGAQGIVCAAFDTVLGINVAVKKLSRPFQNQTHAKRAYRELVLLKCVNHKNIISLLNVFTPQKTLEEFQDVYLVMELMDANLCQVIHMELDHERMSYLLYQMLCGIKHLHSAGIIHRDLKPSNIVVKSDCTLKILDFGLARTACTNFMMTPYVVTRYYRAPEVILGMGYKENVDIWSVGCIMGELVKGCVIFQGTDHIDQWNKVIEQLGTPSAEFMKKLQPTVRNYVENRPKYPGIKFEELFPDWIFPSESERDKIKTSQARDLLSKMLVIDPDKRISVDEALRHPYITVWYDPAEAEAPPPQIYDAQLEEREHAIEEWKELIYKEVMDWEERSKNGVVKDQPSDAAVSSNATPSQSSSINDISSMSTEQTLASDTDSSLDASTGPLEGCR

SMILES	Kd [1]	Kd [2]	Kd [3]	Kd [4]	Kd [5]	Kd [6]	Kd [7]	Kd [8]	Kd [9]	Kd [10]	Kd [11]	Kd [12]	Kd [13]	Kd [14]	Kd [15]
O=C(Cc1ccc(-c2ccc(OCCN3CCOCC3)cc2)cn1)NCc1ccccc1 [TIRBANIBULIN]	> 30 µM (inactive)	> 30 µM (inactive)	> 30 µM (inactive)	> 30 µM (inactive)	> 30 µM (inactive)	> 30 µM (inactive)	> 30 µM (inactive)	> 30 µM (inactive)	> 30 µM (inactive)	> 30 µM (inactive)	> 30 µM (inactive)	> 30 µM (inactive)	> 30 µM (inactive)	> 30 µM (inactive)	> 30 µM (inactive)
O=C1NC(=O)[C@@H](c2cn3c4c(cccc24)CCC3)[C@@H]1c1c[nH]c2ccccc12 [TIVANTINIB]	> 30 µM (inactive)	> 30 µM (inactive)	> 30 µM (inactive)	> 30 µM (inactive)	> 30 µM (inactive)	> 30 µM (inactive)	> 30 µM (inactive)	> 30 µM (inactive)	> 30 µM (inactive)	> 30 µM (inactive)	> 30 µM (inactive)	> 30 µM (inactive)	> 30 µM (inactive)	> 30 µM (inactive)	> 30 µM (inactive)
Cc1cc(Nc2ncnc3ccc(NC4=NC(C)(C)CO4)cc23)ccc1Oc1ccn2ncnc2c1 [TUCATINIB]	> 30 µM (inactive)	> 30 µM (inactive)	> 30 µM (inactive)	> 30 µM (inactive)	> 30 µM (inactive)	> 30 µM (inactive)	> 30 µM (inactive)	> 30 µM (inactive)	> 30 µM (inactive)	> 30 µM (inactive)	> 30 µM (inactive)	> 30 µM (inactive)	> 30 µM (inactive)	> 30 µM (inactive)	> 30 µM (inactive)

Now from value to compound:

Kd [1]	Kd [2]	Kd [3]	Kd [4]	Kd [5]	Kd [6]	Kd [7]	Kd [8]	Kd [9]	Kd [10]	Kd [11]	Kd [12]	Kd [13]	Kd [14]	Kd [15]	SMILES
0.063 µM (active)	> 30 µM (inactive)	> 30 µM (inactive)	> 30 µM (inactive)	> 30 µM (inactive)	> 30 µM (inactive)	0.45 µM (active)	> 30 µM (inactive)	> 30 µM (inactive)	> 30 µM (inactive)	> 30 µM (inactive)	> 30 µM (inactive)	> 30 µM (inactive)	> 30 µM (inactive)	> 30 µM (inactive)	C[C@@H](NC(=O)c1ncnc(N)c1Cl)c1ncc(C(=O)Nc2cc(C(F)(F)F)c(Cl)cn2)s1 [TOVORAFENIB]
> 30 µM (inactive)	5.63 µM (active)	2.31 µM (active)	> 30 µM (inactive)	59 µM	> 30 µM (inactive)	> 30 µM (inactive)	> 30 µM (inactive)	> 30 µM (inactive)	> 30 µM (inactive)	> 30 µM (inactive)	> 30 µM (inactive)	> 30 µM (inactive)	> 30 µM (inactive)	> 30 µM (inactive)	CN1C/C=C/CCOc2cccc(c2)-c2ccnc(n2)Nc2cccc(c2)C1 [ZOTIRACICLIB]
